US10316017B2, “COT modulators and methods of use thereof” (Gilead Sciences, Inc., priority 2015, dated 2019)

How the values were obtained:
[1] = test system: TNFα production in LPS-stimulated human monocytes; test: Cot Monocyte TNFα Cell Based Assay; conditions: Homo sapiens, Monocyte, TNFα in LPS-stimulated human monocytes; read-out: EC50 TNF
Procedure, shortened: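 Percent-of-control values derive from TR-FRET ratios of TNFα in spun-down media, referenced to unstimulated and LPS-stimulated wells. Exposure: 1 h compound preincubation, then 50 pg/ml LPS for 4 h, both at 37 °C, with 0.5% final DMSO.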

[2] = molecular target: T1, human Cot catalytic domain (30-397 amino acids) (Homo sapiens, UniProt P41279); test: High Throughput Cot Biochemical Assay (KinEASE TR-FRET); conditions: Cot biochemical HTRF (KinEASE TR-FRET) assay; read-out: IC50 HTRF
T1 construct: Purified recombinant human Cot catalytic domain (30-397 amino acids) was purchased from Cama Biosciences; purchased Cama Biosciences (so in the source)
Procedure, shortened: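 Phosphorylation of 1 μM XL665-STK3 peptide by 5 nM Cot catalytic domain was measured by time-resolved FRET using a europium […] antibody. ATP was 400 μM; buffer was 10 mM MOPS pH 7.0 with Mg2+ and DTT.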

T1 sequence (P41279 30-397): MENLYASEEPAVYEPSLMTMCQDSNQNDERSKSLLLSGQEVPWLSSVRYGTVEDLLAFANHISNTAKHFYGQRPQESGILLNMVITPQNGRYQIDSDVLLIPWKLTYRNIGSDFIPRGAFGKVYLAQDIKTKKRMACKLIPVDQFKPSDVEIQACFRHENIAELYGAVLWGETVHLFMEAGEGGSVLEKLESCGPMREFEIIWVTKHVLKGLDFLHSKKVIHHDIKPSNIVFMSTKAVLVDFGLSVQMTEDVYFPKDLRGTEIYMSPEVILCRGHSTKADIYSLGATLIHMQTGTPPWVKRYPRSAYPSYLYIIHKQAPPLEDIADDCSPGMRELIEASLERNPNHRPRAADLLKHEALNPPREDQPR

Row | SMILES | EC50 [1] [nM] | IC50 [2] [nM]
1 | CC(C)(C)N1CCC(n2cc([C@@H](Nc3cc(Cl)c4ncc(C#N)c(Nc5c(F)cccc5F)c4c3)c3ccc(Cl)cc3)nn2)CC1 [Example 653, (S)-6-(((1-(1-(tert-butyl)piperidin-4-yl)-1H-1,2,3-triazol-4-yl)(4-chlorophenyl)methyl)amino)-8-chloro-4-((2,6-difluorophenyl)amino)quinoline-3-carbonitrile] | 9280 | 160
2 | CC(C)(C)N1CCC(n2cc([C@@H](Nc3cc(Cl)c4ncc(C#N)c(Nc5ccc(OCc6ccccc6)c(Cl)c5)c4c3)c3ccc(Cl)cc3)nn2)CC1 [Example 654, (S)-4-((4-(benzyloxy)-3-chlorophenyl)amino)-6-(((1-(1-(tert-butyl)piperidin-4-yl)-1H-1,2,3-triazol-4-yl)(4-chlorophenyl)methyl)amino)-8-chloroquinoline-3-carbonitrile] | > 50000 | 2040
3 | C[C@@H](Nc1c(C#N)cnc2c(Cl)cc(N[C@@H](c3ccccc3)c3c[nH]nn3)cc12)c1ccccc1 [Example 656, 8-chloro-6-(((S)-phenyl(1H-1,2,3-triazol-4-yl)methyl)amino)-4-(((R)-1-phenylethyl)amino) quinoline-3-carbonitrile] | 1820 | 39
4 | C[C@@H](CNc1c(C#N)cnc2c(Cl)cc(N[C@@H](c3ccc(Cl)cc3)c3cn(C4CCN(C(C)(C)C)CC4)nn3)cc12)c1ccccc1 [Example 659, 6-(((S)-(1-(1-(tert-butyl)piperidin-4-yl)-1H-1,2,3-triazol-4-yl)(4-chlorophenyl)methyl)amino)-8-chloro-4-(((R)-2-phenylpropyl)amino)quinoline-3-carbonitrile] | 5350 | 95
5 | CC(C)(C)N1CCC(n2cc([C@@H](Nc3cc(Cl)c4ncc(C#N)c(NC5CCOCC5)c4c3)c3ccc(Cl)cc3)nn2)CC1 [Example 662, (S)-6-(((1-(1-(tert-butyl)piperidin-4-yl)-1H-1,2,3-triazol-4-yl)(4-chlorophenyl)methyl)amino)-8-chloro-4-((tetrahydro-2H-pyran-4-yl)amino)quinoline-3-carbonitrile] | 1270 | 70
6 | CC1(Nc2c(C#N)cnc3c(Cl)cc(N[C@@H](c4ccc(Cl)cc4)c4cn(C5CCN(C(C)(C)C)CC5)nn4)cc23)CCCCC1 [Example 663, (S)-6-(((1-(1-(tert-butyl)piperidin-4-yl)-1H-1,2,3-triazol-4-yl)(4-chlorophenyl)methyl)amino)-8-chloro-4-((1-methylcyclohexyl)amino) quinoline-3-carbonitrile] | 4740 | 72
7 | CC(C)(C)N1CCC(n2cc([C@@H](Nc3cc(Cl)c4ncc(C#N)c(Nc5cc(Cl)c(Cl)cc5F)c4c3)c3ccc(Cl)cc3)nn2)CC1 [Example 664, (S)-6-(((1-(1-(tert-butyl)piperidin-4-yl)-1H-1,2,3-triazol-4-yl)(4-chlorophenyl)methyl)amino)-8-chloro-4-((4,5-dichloro-2-fluorophenyl)amino)quinoline-3-carbonitrile] | 8150 | 379
8 | N#Cc1cnc2c(Cl)cc(N[C@@H](c3ccccc3)c3cn(CCCF)nn3)cc2c1Nc1ccc(F)c(Cl)c1 [Example 666, (S)-8-chloro-4-((3-chloro-4-fluorophenyl)amino)-6-(((1-(3-fluoropropyl)-1H-1,2,3-triazol-4-yl)(phenyl)methyl)amino) quinoline-3-carbonitrile] | 458 | 14
9 | CC(C)(C)C(O)c1cccc([C@H](Nc2cc(Cl)c3ncc(C#N)c(Nc4ccc(F)c(Cl)c4)c3c2)c2cn(C3CCN(C(C)(C)C)CC3)nn2)c1 (stereo partly drawn) [Example 672, 6-(((1S)-(1-(1-(tert-butyl)piperidin-4-yl)-1H-1,2,3-triazol-4-yl)(3-(1-hydroxy-2,2-dimethylpropyl)phenyl)methyl)amino)-8-chloro-4-((3-chloro-4-fluorophenyl)amino)quinoline-3-carbonitrile] | 889 | 32
10 | CC(C)(C)N1CCC(n2cc([C@@H](Nc3cc(Cl)c4ncc(C#N)c(Nc5ccc(F)c(Cl)c5)c4c3)c3cccc(C(=O)N4CCC4)c3)nn2)CC1 [Example 675, (S)-6-(((3-(azetidine-1-carbonyl)phenyl)(1-(1-(tert-butyl)piperidin-4-yl)-1H-1,2,3-triazol-4-yl)methyl)amino)-8-chloro-4-((3-chloro-4-fluorophenyl)amino)quinoline-3-carbonitrile] | 81 | 1

Continued by falling EC50 [1], values first:

Row | EC50 [1] [nM] | IC50 [2] [nM] | SMILES
11 | 12200 | 27 | C[C@H](CNc1c(C#N)cnc2c(Cl)cc(N[C@@H](c3ccc(Cl)cc3)c3cn(C4CCN(C(C)(C)C)CC4)nn3)cc12)c1ccccc1 [Example 658, 6-(((S)-(1-(1-(tert-butyl)piperidin-4-yl)-1H-1,2,3-triazol-4-yl)(4-chlorophenyl)methyl)amino)-8-chloro-4-(((S)-2-phenylpropyl)amino)quinoline-3-carbonitrile]
12 | 10500 | 324 | CCOc1ccc(Nc2c(C#N)cnc3c(Cl)cc(N[C@@H](c4ccc(Cl)cc4)c4cn(C5CCN(C(C)(C)C)CC5)nn4)cc23)cc1Cl [Example 655, (S)-6-(((1-(1-(tert-butyl)piperidin-4-yl)-1H-1,2,3-triazol-4-yl)(4-chlorophenyl)methyl)amino)-8-chloro-4-((3-chloro-4-ethoxyphenyl)amino)quinoline-3-carbonitrile]
13 | 7660 | 61 | CC(C)(C)N1CCC(n2cc([C@@H](Nc3cc(Cl)c4ncc(C#N)c(Nc5cc(Cl)ccc5F)c4c3)c3ccc(Cl)cc3)nn2)CC1 [Example 652, (S)-6-(((1-(1-(tert-butyl)piperidin-4-yl)-1H-1,2,3-triazol-4-yl)(4-chlorophenyl)methyl)amino)-8-chloro-4-((5-chloro-2-fluorophenyl)amino)quinoline-3-carbonitrile]
14 | 2490 | 143 | C[C@@H](Nc1c(C#N)cnc2c(Cl)cc(N[C@@H](c3ccc(Cl)cc3)c3c[nH]nn3)cc12)c1ccccc1 [Example 657, 8-chloro-6-(((S)-(4-chlorophenyl)(1H-1,2,3-triazol-4-yl)methyl)amino)-4-(((R)-1-phenylethyl)amino)quinoline-3-carbonitrile]
15 | 1610 | 97 | CC(C)(C)C(=O)OCn1cc([C@@H](Nc2cc(Cl)c3ncc(C#N)c(Nc4ccc(F)c(Cl)c4)c3c2)c2ccccc2)nn1 [Example 668, (S)-(4-(((8-chloro-4-((3-chloro-4-fluorophenyl)amino)-3-cyanoquinolin-6-yl)amino)(phenyl)methyl)-1H-1,2,3-triazol-1-yl)methyl pivalate]
16 | 1550 | 2 | CC(C)(C)N1CCC(n2cc([C@@H](Nc3cc(Cl)c4ncc(C#N)c(Nc5ccc(F)c(Cl)c5)c4c3)c3cccc(C(N)=O)c3)nn2)CC1 [Example 673, (S)-3-((1-(1-(tert-butyl)piperidin-4-yl)-1H-1,2,3-triazol-4-yl)((8-chloro-4-((3-chloro-4-fluorophenyl)amino)-3-cyanoquinolin-6-yl)amino)methyl)benzamide]
17 | 1090 | 39 | N#Cc1cnc2c(Cl)cc(N[C@@H](c3ccccc3)c3cn(CC(F)F)nn3)cc2c1Nc1ccc(F)c(Cl)c1 [Example 669, (S)-8-chloro-4-((3-chloro-4-fluorophenyl)amino)-6-(((1-(2,2-difluoroethyl)-1H-1,2,3-triazol-4-yl)(phenyl)methyl)amino) quinoline-3-carbonitrile]
18 | 887 | 28 | N#Cc1cnc2c(Cl)cc(N[C@@H](c3ccccc3)c3c[nH]nn3)cc2c1Nc1ccc(F)c(Cl)c1 [Example 667, (S)-8-chloro-4-((3-chloro-4-fluorophenyl)amino)-6-((phenyl(1H-1,2,3-triazol-4-yl)methyl)amino)quinoline-3-carbonitrile]
19 | 807 | 14 | CC(C)(C)N1CCC(n2cc([C@@H](Nc3cc(Cl)c4ncc(C#N)c(Nc5cnc(F)c(F)c5)c4c3)c3ccc(Cl)cc3)nn2)CC1 [Example 660, (S)-6-(((1-(1-(tert-butyl)piperidin-4-yl)-1H-1,2,3-triazol-4-yl)(4-chlorophenyl)methyl)amino)-8-chloro-4-((5,6-difluoropyridin-3-yl)amino)quinoline-3-carbonitrile]
20 | 682 | 10 | CC(C)(C)C(=O)c1cccc([C@H](Nc2cc(Cl)c3ncc(C#N)c(Nc4ccc(F)c(Cl)c4)c3c2)c2cn(C3CCN(C(C)(C)C)CC3)nn2)c1 [Example 671, (S)-6-(((1-(1-(tert-butyl)piperidin-4-yl)-1H-1,2,3-triazol-4-yl)(3-pivaloylphenyl)methyl)amino)-8-chloro-4-((3-chloro-4-fluorophenyl)amino)quinoline-3-carbonitrile]
21 | 318 | 3 | CCN(C)C(=O)c1cccc([C@H](Nc2cc(Cl)c3ncc(C#N)c(Nc4ccc(F)c(Cl)c4)c3c2)c2cn(C3CCN(C(C)(C)C)CC3)nn2)c1 [Example 674, (S)-3-((1-(1-(tert-butyl)piperidin-4-yl)-1H-1,2,3-triazol-4-yl)((8-chloro-4-((3-chloro-4-fluorophenyl)amino)-3-cyanoquinolin-6-yl)amino)methyl)-N-ethyl-N-methylbenzamide]
